The text below walks through data of ChEMBL document CHEMBL1201862, “PubChem BioAssay data set” (2004).

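All cell lines were grown in 96-well plates and treated with compound for 48 hours. At the GI50, growth is halved.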 Active and inactive are the calls of the source. Cut-off read from the data, not from the text of the source: active = GI50 up to about 1.1 µM and inactive = higher.

Common to all, as to experiment: NCI tumour cell line growth inhibition, 48 h
Assay [1] has as its system TK-10.
Assay [2] concerns U-251.
The test system of assay [3] is HL-60.
In assay [4] the test system is SNB-78.
Assay [5] concerns SF-295.
Assay [6] concerns SNB-19.
The test system of assay [7] is SNB-75.
In assay [8] the test system is HOP-92.
The subject of assay [9] is HT-29.
Assay [10] has as its system CCRF-CEM.
In assay [11] the test system is CAKI-1.
Assay [12] deals with HOP-62.
In assay [13] the test system is K562.
Assay [14] concerns SK-OV-3.
Assay [15] has as its system HCT-116.
For assay [16], the system named is SR.
Assay [17] relates to SK-MEL-2.
Assay [18] concerns NCI-H226.

Take `CC(=O)c1c(O)c2c([nH]c1=O)CCCC2`: the GI50 in assay [1] was > 100 µM (inactive); in assay [2], 23.6 µM (inactive); in [3] it was 48.3 µM (inactive); in assay [4] it was > 100 µM (inactive); in assay [5], 15.7 µM (inactive); in [6], 18 µM (inactive). Also, the GI50 was 10.6 µM (inactive) in [7]; > 100 µM (inactive) in assay [8]; 24.2 µM (inactive) in assay [9]; > 100 µM (inactive) in [10]; > 100 µM (inactive) in assay [11]; 19.9 µM (inactive) in [12]. The GI50 was > 100 µM (inactive) in [13] and 25.6 µM (inactive) in assay [14].

As to `CN(C)CCC(/C=C/c1ccccc1)=N\Nc1ccc(Cl)c(Cl)c1`, the GI50 is 2.38 µM (inactive) in assay [1]; 3.56 µM (inactive) in assay [15]; 4.59 µM (inactive) in assay [2]; 2.7 µM (inactive) in [3]; 2.09 µM (inactive) in assay [16]; 3.58 µM (inactive) in assay [4]. Besides, the GI50 is 3.78 µM (inactive) in [5]; 5.53 µM (inactive) in assay [6]; 2.27 µM (inactive) in [7]; 1.41 µM (inactive) in [8]; 2.24 µM (inactive) in assay [9]; 2.91 µM (inactive) in assay [10]. In addition, the GI50 in [11] is 2.61 µM (inactive); in assay [12] it was 3.15 µM (inactive); in assay [13], 2.23 µM (inactive); in assay [17] it was 2.49 µM (inactive); in assay [14], 4.53 µM (inactive).

On to `O=C(O)c1c2c(cc3c(=O)c4ccccc4[nH]c13)CCCC2`, for which the GI50 in assay [1] is > 100 µM (inactive); in [18], > 100 µM (inactive); in [15], 82 µM (inactive); in assay [2], > 10 µM (inactive); in assay [3], > 100 µM (inactive); in assay [16] it was > 100 µM (inactive). Also, the GI50 was > 100 µM (inactive) in assay [4]; 68.5 µM (inactive) in assay [5]; 88.5 µM (inactive) in assay [6]; > 100 µM (inactive) in assay [7]; 59.7 µM (inactive) in assay [8]; > 100 µM (inactive) in assay [9]. Moreover, the GI50 in assay [10], in assay [12], in [17] and in [14] was > 100 µM (inactive) in each case.

For the molecule `Cc1nc2ccccc2[s+]c1-c1cnc(NC#N)nc1C(=O)Nc1cccc(Cl)c1`, the GI50 in assay [1], in assay [18], in assay [15], in assay [2], in [16] and in [4] was > 100 µM (inactive) in each case. Further, the GI50 in assay [5], in assay [6], in assay [7], in assay [9], in assay [10] and in assay [11] was > 100 µM (inactive) throughout. The GI50 in assay [12], in [13], in assay [17] and in assay [14] was > 100 µM (inactive) in each case.

Regarding `Cc1cc(C)nc(NS(=O)(=O)c2ccc(Nc3c4ccccc4nc4c(C(=O)NCCN(C)C)cccc34)cc2)n1`, the GI50 in assay [1] was 10.6 µM (inactive); in [18], 2.17 µM (inactive); in assay [15], 1.53 µM (inactive); in assay [2], 3.72 µM (inactive); in assay [3], 1.49 µM (inactive); in assay [16], 0.302 µM (active). Further, the GI50 in [4] is 11.5 µM (inactive); in [5], 1.91 µM (inactive); in [6], 1.85 µM (inactive); in assay [7], 10.7 µM (inactive); in assay [9], 1.14 µM (inactive); in assay [10] it was 1.26 µM (inactive). The GI50 is 2.52 µM (inactive) in assay [12], 2.08 µM (inactive) in assay [13] and 4.89 µM (inactive) in assay [17].

As for `Cc1cc2c(C)n[nH]c2c(C(=O)O)c1C`, the GI50 is > 100 µM (inactive) in assay [15]; > 100 µM (inactive) in assay [2]; > 100 µM (inactive) in [3]; > 100 µM (inactive) in assay [16]; 36.2 µM (inactive) in assay [4]; > 100 µM (inactive) in assay [5]. Besides, the GI50 in assay [6] is > 100 µM (inactive); in assay [7], > 100 µM (inactive); in assay [8], < 0.01 µM (active); in assay [9], > 100 µM (inactive); in [10], > 100 µM (inactive); in [11] it was > 100 µM (inactive). Further, the GI50 in assay [12], in [13] and in assay [17] was > 100 µM (inactive) each time.

Consider `Fc1ccc(C2SCc3nc4ccccc4n32)cc1Cl` (configuration not stated), for which the GI50 in [1] was 27.8 µM (inactive); in assay [18], 23.2 µM (inactive); in assay [2], 19.4 µM (inactive); in assay [3], 13.1 µM (inactive); in assay [16], 27.2 µM (inactive); in [4] it was 48.8 µM (inactive). Besides, the GI50 in assay [5] was 26.5 µM (inactive); in [6], 34.4 µM (inactive); in [8], 12 µM (inactive); in assay [9] it was 37.1 µM (inactive); in assay [10], 25.6 µM (inactive); in [11], 13 µM (inactive). Also, the GI50 in assay [12] was 15.5 µM (inactive); in [13], 16.5 µM (inactive); in [17] it was > 10 µM (inactive); in [14], 17.5 µM (inactive).

As for `CSC(C1c2ccccc2N(c2ccc(C)cc2)C2=NC(=O)N(C)C(=O)C21Cl)S(=O)(=O)c1ccc(C)cc1` (configuration not stated), the GI50 in assay [1] is 48.6 µM (inactive); in assay [18] it was 22.2 µM (inactive); in [15] it was 13 µM (inactive); in [2], 19.3 µM (inactive); in [3], 3.31 µM (inactive); in assay [4], 27.9 µM (inactive). Besides, the GI50 was 24.2 µM (inactive) in [5]; 26.4 µM (inactive) in [6]; 23 µM (inactive) in assay [7]; 11 µM (inactive) in assay [8]; 26.2 µM (inactive) in [9]; 10.8 µM (inactive) in [10]. Also, the GI50 in [11] is 19.8 µM (inactive); in assay [12] it was 20.7 µM (inactive); in [13], 19.1 µM (inactive); in assay [17], 18.8 µM (inactive); in assay [14], 42.1 µM (inactive).

Turning to `COC1CC(n2cc(F)c(N)nc2=O)OC1CO` (configuration not stated), the GI50 in [1], in assay [18], in assay [2], in [3], in [4] and in [5] was > 100 µM (inactive) throughout. Besides, the GI50 in [6], in [7], in assay [8], in assay [9], in [10] and in assay [11] was > 100 µM (inactive) each time. The GI50 in [12], in assay [13], in assay [17] and in assay [14] was > 100 µM (inactive) in each case.
